Data published in PubChem BioAssay AID1963441 (Molecular Pharmacology Branch, DTP, NCI, 2024).

Tested on: NCI-H1876 complex spheroid growth, % test/control
Test: Anticancer human tumor NCI-H1876 cell line growth inhibition [Asc];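 also: compound exposure lasted 7 days starting three days after seeding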;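 as to viability, T/C: 100% = DMSO vehicle control wells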
Details: for IC50: curve of first compound; for viability, T/C: stronger effect = lower value
How it was run: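 Complex spheroids combining tumor cells with HUVEC endothelial cells and human MSCs, at 37 degrees C, 5% CO2; agents tested alone or combined, half-log dilutions from at or near clinical Cmax, or 10 microM if Cmax unknown.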

Cn1ncnc1[C@H]1c2n[nH]c(=O)c3cc(F)cc(c23)N[C@@H]1c1ccc(F)cc1 + CCN1C(C(=O)NC23CCC(C(=O)O)(CC2)CC3)C(c2cccc(Cl)c2F)C2(C(=O)Nc3cc(Cl)ccc32)C12CCCCC2
IC50 (second compound 0.00949 µM): > 0.1 µM | IC50 (second compound 0.03 µM): > 0.1 µM | IC50 (second compound 0.0949 µM): > 0.1 µM | IC50 (second compound 0.3 µM): > 0.1 µM | IC50 (second compound 0.949 µM): > 0.1 µM | IC50 (second compound 3 µM): > 0.1 µM | viability, T/C (second compound 0.00949 µM, first compound 0.000316 µM): 123% | viability, T/C (second compound 0.00949 µM, first compound 0.001 µM): 89.9% | viability, T/C (second compound 0.00949 µM, first compound 0.00316 µM): 113% | viability, T/C (second compound 0.00949 µM, first compound 0.01 µM): 102% | viability, T/C (second compound 0.00949 µM, first compound 0.0316 µM): 100% | viability, T/C (second compound 0.00949 µM, first compound 0.1 µM): 91.6% | viability, T/C (second compound 0.03 µM, first compound 0.000316 µM): 100% | viability, T/C (second compound 0.03 µM, first compound 0.001 µM): 102% | viability, T/C (second compound 0.03 µM, first compound 0.00316 µM): 107% | viability, T/C (second compound 0.03 µM, first compound 0.01 µM): 92.6% | viability, T/C (second compound 0.03 µM, first compound 0.0316 µM): 106% | viability, T/C (second compound 0.03 µM, first compound 0.1 µM): 95.4% | viability, T/C (second compound 0.0949 µM, first compound 0.000316 µM): 101% | viability, T/C (second compound 0.0949 µM, first compound 0.001 µM): 99.4% | viability, T/C (second compound 0.0949 µM, first compound 0.00316 µM): 111% | viability, T/C (second compound 0.0949 µM, first compound 0.01 µM): 104% | viability, T/C (second compound 0.0949 µM, first compound 0.0316 µM): 113% | viability, T/C (second compound 0.0949 µM, first compound 0.1 µM): 89% | viability, T/C (second compound 0.3 µM, first compound 0.000316 µM): 103% | viability, T/C (second compound 0.3 µM, first compound 0.001 µM): 120% | viability, T/C (second compound 0.3 µM, first compound 0.00316 µM): 111% | viability, T/C (second compound 0.3 µM, first compound 0.01 µM): 114% | viability, T/C (second compound 0.3 µM, first compound 0.0316 µM): 110% | viability, T/C (second compound 0.3 µM, first compound 0.1 µM): 98.3% | viability, T/C (second compound 0.949 µM, first compound 0.000316 µM): 118% | viability, T/C (second compound 0.949 µM, first compound 0.001 µM): 134% | viability, T/C (second compound 0.949 µM, first compound 0.00316 µM): 117% | viability, T/C (second compound 0.949 µM, first compound 0.01 µM): 134% | viability, T/C (second compound 0.949 µM, first compound 0.0316 µM): 123% | viability, T/C (second compound 0.949 µM, first compound 0.1 µM): 91.6% | viability, T/C (second compound 3 µM, first compound 0.000316 µM): 103% | viability, T/C (second compound 3 µM, first compound 0.001 µM): 105% | viability, T/C (second compound 3 µM, first compound 0.00316 µM): 81.3% | viability, T/C (second compound 3 µM, first compound 0.01 µM): 95.5% | viability, T/C (second compound 3 µM, first compound 0.0316 µM): 95.2% | viability, T/C (second compound 3 µM, first compound 0.1 µM): 95.5%

C=C(F)C(=O)N1CCN(c2nc(OCC3CCCN3C)nc3c2CCN(c2cccc4cccc(Cl)c24)C3)CC1CC#N (centres undefined) + CNC(C)C(=O)NC1CN(S(=O)(=O)c2cccc(S(=O)(=O)N3CCC4CCC(C(=O)NC(c5ccccc5)c5ccccc5)N4C(=O)C(NC(=O)C(C)NC)C3)c2)CCC2CCC(C(=O)NC(c3ccccc3)c3ccccc3)N2C1=O
IC50 (second compound 0.00316 µM): 5.58 µM | IC50 (second compound 0.01 µM): 5.6 µM | IC50 (second compound 0.0316 µM): 5.59 µM | IC50 (second compound 0.1 µM): 5.66 µM | IC50 (second compound 0.316 µM): 5.73 µM | IC50 (second compound 1 µM): 5.46 µM | viability, T/C (second compound 0.00316 µM, first compound 0.0316 µM): 96.9% | viability, T/C (second compound 0.00316 µM, first compound 0.1 µM): 97.3% | viability, T/C (second compound 0.00316 µM, first compound 0.316 µM): 110% | viability, T/C (second compound 0.00316 µM, first compound 1 µM): 89.3% | viability, T/C (second compound 0.00316 µM, first compound 3.16 µM): 99% | viability, T/C (second compound 0.00316 µM, first compound 10 µM): 0.33% | viability, T/C (second compound 0.01 µM, first compound 0.0316 µM): 104% | viability, T/C (second compound 0.01 µM, first compound 0.1 µM): 96.2% | viability, T/C (second compound 0.01 µM, first compound 0.316 µM): 103% | viability, T/C (second compound 0.01 µM, first compound 1 µM): 103% | viability, T/C (second compound 0.01 µM, first compound 3.16 µM): 98.4% | viability, T/C (second compound 0.01 µM, first compound 10 µM): 1.04% | viability, T/C (second compound 0.0316 µM, first compound 0.0316 µM): 106% | viability, T/C (second compound 0.0316 µM, first compound 0.1 µM): 91.5% | viability, T/C (second compound 0.0316 µM, first compound 0.316 µM): 98.2% | viability, T/C (second compound 0.0316 µM, first compound 1 µM): 95.2% | viability, T/C (second compound 0.0316 µM, first compound 3.16 µM): 103% | viability, T/C (second compound 0.0316 µM, first compound 10 µM): 0.33% | viability, T/C (second compound 0.1 µM, first compound 0.0316 µM): 98.2% | viability, T/C (second compound 0.1 µM, first compound 0.1 µM): 95.4% | viability, T/C (second compound 0.1 µM, first compound 0.316 µM): 102% | viability, T/C (second compound 0.1 µM, first compound 1 µM): 115% | viability, T/C (second compound 0.1 µM, first compound 3.16 µM): 100% | viability, T/C (second compound 0.1 µM, first compound 10 µM): 0.52% | viability, T/C (second compound 0.316 µM, first compound 0.0316 µM): 106% | viability, T/C (second compound 0.316 µM, first compound 0.1 µM): 98.7% | viability, T/C (second compound 0.316 µM, first compound 0.316 µM): 107% | viability, T/C (second compound 0.316 µM, first compound 1 µM): 96.3% | viability, T/C (second compound 0.316 µM, first compound 3.16 µM): 108% | viability, T/C (second compound 0.316 µM, first compound 10 µM): 0.32% | viability, T/C (second compound 1 µM, first compound 0.0316 µM): 96.2% | viability, T/C (second compound 1 µM, first compound 0.1 µM): 85.5% | viability, T/C (second compound 1 µM, first compound 0.316 µM): 92.1% | viability, T/C (second compound 1 µM, first compound 1 µM): 102% | viability, T/C (second compound 1 µM, first compound 3.16 µM): 97.2% | viability, T/C (second compound 1 µM, first compound 10 µM): 0.37%
